# According to US6670384B2, “Methods of administering epothilone analogs for the treatment of cancer” (Bristol-Myers Squibb Company, priority 2001, dated 2003):
# Read-outs that look alike come from different tables or passages of the source.
# Assays:
# colon tumors = assay: Anti-tumor response in previously treated cancer patients, colon tumors; type: in vivo, human; details: metastatic colon cancer patients previously treated with chemotherapy
# From the text: (§1) A total of 24 cancer patients (12 male and 12 female) received compound II by IV administration to evaluate the maximum tolerated dose (MTD), the dose limiting toxicity (DLT), the pharmacokinitics and pharmacodynamics, and to evaluate the anti-tumor activity of compound II. The median age (range) of the patients was 57 (34-74). 5 patients had breast cancer, 5 patients had head and neck cancer, 2 patients had sarcoma, 2 patients had colorectal cancer, 2 patients had UPT cancer, 2 patients had melanoma, 2 patients had cancer of the esophagus, 1 patient had renal cancer, 1 patient had cervical cancer, 1 patient had thyroid cancer, and 1 patient had anal cancer. 21 patients had received prior chemotherapy (18 patients received neurotoxic agents and 18 patients received radiotherapy). The median number of prior chemotherapy lines including adjuvant (range) was 2 (1-3).
# (§2) In a second study a total of 12 cancer patients (5 male and 7 female) were orally administered compound II on day 1 followed by a 30 minute IV infusion of compound II every week starting on day 7 at a dose of 25 mg/m^2 to evaluate neurotoxicity of compound II. The median age (range) of the patients was 51 (30-65). 4 patients had colorectal cancer, 3 patients had breast cancer, 2 patients had melanoma, 1 patient had renal cancer, 1 patient had sarcoma, and 1 patient had ovary cancer. […]
# [1] = Dose escalation study of weekly IV Compound II in cancer patients (MTD, dose limiting toxicity); type: in vivo, human; details: 30 minute IV infusion every week
# From the text: as §1
# Patients were orally administered compound II on day 1 (for dose levels of 20 mg/m^2 and higher) followed by a 30 minute IV infusion of compound II every week starting on day 7. Patients were administered compound II at doses of 1, 2.5, 5, 10, 20, 25, and 30 mg/m^2.
# breast tumors = assay: Anti-tumor response in previously treated cancer patients, breast tumors; type: in vivo, human; details: breast cancer patients previously treated with chemotherapy
# From the text: as §1, §2
# [2] = Stability of the drug during dissolution in tertiary butanol/water and lyophilization; type: physicochemical; details: tertiary butanol/Water for Injection 1:1 at 5 EC, lyophilized at −16 EC 48 hours, dried at 15 EC 48 hours, light protected
# Procedure: [1S-[1R*,3R*(E),7R*,10S*,11R*,12R*,16S*]]-7,11-Dihydroxy-8,8,10,12,16-pentamethyl-3-[1-methyl-2-(2-methyl-4-thiazolyl)ethenyl]-4-aza-17-oxabicyclo[14.1.0]heptadecane-5,9-dione, 9.86 g, was wetted/partially dissolved with 600 mL of a 9:1 mixture of tertiary butanol and Water for Injection USP which had been pre-cooled to 5 EC. Once the drug powder had become completely wetted, dissolution was completed by the addition of 600 mL of a 1:9 mixture of tertiary butanol and Water for Injection and 766 mL of a 1:1 mixture of tertiary butanol and Water for Injection which likewise had been pre-cooled to 5 EC thereby making the final solution a 1:1 mixture. The dissolution was carried out under protection from light.
# The solution formed above was promptly lyophilized in a Virtis INOTOP lyophilizer at −16 EC under light protectant conditions over a period of 48 hours. The resultant lyophilized product (lyophile) was then further dried at 15 EC under high vacuum for 48 hours. […] The lyophile was packaged under sterile conditions into 30 mL vials, each containing 10 mg of drug and standard excess to allow for vial/needle/syringe loss.
# [3] = Pharmacokinetics of Compound II given orally and intravenously to cancer patients (plasma, LC/MS/MS); type: in vivo, human; details: for Tmax / Cmax / bioavailability: human, plasma; for bioavailability: read-out: % F (absolute bioavailability)
# Procedure: Patients with Advanced Malignancies were administered Compound II weekly as a 30-minute infusion (a course=3 intravenous weekly administrations). Patients received doses of 1, 2.5, 5, 10, 20, 25, or 30 mg/m^2. […] The dose of oral Compound II administered on Day 6 matched the dose of IV Compound II administered on day 1. Serial plasma sampling was obtained on day 6 and day 1 of course 1 to assess pharmacokinetics by an LC/MS/MS.
# Samples were analyzed by adding an internal standard to 0.2 mL of plasma sample, precipitating with acetone, and then extracting the supernatant with 1-chlorobutane. The organic layer was removed and evaporated to dryness. The residue was reconstituted and injected into the LC/MS/MS system. Chromatographic separation was achieved, isocratically, on a YMC ODS-AQ column (4.6×50 mm, 3:m) with a mobile phase of acetonitrile:0.01M ammonium acetate, pH 5.0 (65:35). Detection was by negative electrospray tandem mass spectrometry. The standard curve, which ranged from 2 to 500 ng/mL for all analytes and was fitted to a 1/x weighted quadratic regression model.
# The propylene glycol/ethanol mixture was prepared by mixing 80 parts by volume of propylene glycol and 20 parts by volume of ethanol in a suitable container and gently swirling the container until the solution was completely mixed.
# Buffer for use with Compound II was constituted with water for injection (WFI).
# Compound II was prepared for administration to patients by using a suitable syringe to slowly inject 2.5, 5, or 10 mL of the propylene glycol/ethanol mixture into the 20 cc vial containing 25 mg/vial of Compound II, to give concentrations of 10, 5, or 2.5 mg/mL, respectively, depending on the dose to be administered to the patient. The syringe was removed and the vial shaken vigorously for 10 seconds. The vial was placed in a sonication bath and sonicated until the solution became clear. Vials were pooled depending on the dose.
# The bottle was shaken vigorously or sonicated with intermittent shaking until a clear solution was obtained.
# Following oral administration on day 6, 7 mL blood samples was collected into Becton Dickinson Vacutainer tubes with K3EDTA as anticoagulent (lavender-colored top) according to the following schedule (expressed as hours:minutes from the start of the oral administration): predose, 00:15, 00:30, 00:45, 1:00, 1:30, 2:00, 3:00, 4:00, 6:00, 8:00, 24:00, 48:00, and 72:00. Following IV administration on day 1, 7 mL blood samples were collected into Becton Dickinson Vacutainer tubes with K3EDTA as anticoagulent (lavender-colored top) according to the following schedule (expressed as hours:minutes from the start of the IV infusion):predose, 00:15, 00:30 (end-of infusion), 00:45, 1:00, 1:30, 2:00, 3:00, 4:00, 6:00, 8:00, 24:00, 48:00, and 72:00.
# Immediately after blood collection, the Vacutainer tubes were inverted several times to ensure mixing with the anticoagulant and then immediately placed on crushed ice. Within 30 minutes of collection, samples were centrifuged for 5 minutes at approximately 2000×g and 0 to 5 EC. The plasma was then transferred to separate pre-labeled screw-capped polypropylene tubes and stored at −70 EC until bioanalysis. Plasma concentrations of Compound II were analyzed using the LC/MS/MS assay.
# The plasma concentration versus time data were analyzed using non-compartmental methods. The pharmacokinetic parameters determined for Compound II included the maximum observed plasma concentration (Cmax), time to reach Cmax (Tmax), area under the plasma concentration time curve from time zero to the time of last sampling time T(AUC(0-T)).
# A total of 18 patients have received oral Compound II as a solution on day 6 and by IV on day 1.
smiles,measurement,setting,value
"C/C(=C\c1csc(C)n1)C1C[C@@H]2O[C@]2(C)CCC[C@H](C)[C@H](O)[C@@H](C)C(=O)C(C)(C)[C@@H](O)CC(=O)N1 (relative stereo) [Compound II, [1S-[1R*,3R*(E),7R*,10S*,11R*, 12R*,16S*,]]-7,11-Dihydroxy-8,8,10,12,16-pentamethyl-3-[1-methyl-2-(2-methyl-4-thiazolyl)ethenyl]-4-aza-7-oxabicyclo[14.1.0]heptadecane-5,9-dione]",tumor response to treatment,colon tumors,responded
same,weekly dose administered without severe toxicity being observed,[1],up to 30 mg/m^2
same,tumor response to treatment,breast tumors,responded
same,"degradation of the drug during dissolution, lyophilization and drying",[2],No detectable degradation
same,AUC(0-T),"[3]; 20 mg/m^2, IV, patients N=3, mean",796 H · ng/mL
same,AUC(0-T),"[3]; 20 mg/m^2, oral solution, patients N=3, mean",404 H · ng/mL
same,AUC(0-T),"[3]; 25 mg/m^2, IV, patients N=11, mean",848 H · ng/mL
same,AUC(0-T),"[3]; 25 mg/m^2, oral solution, patients N=11, mean",533 H · ng/mL
same,AUC(0-T),"[3]; 30 mg/m^2, IV, patients N=4, mean",1155 H · ng/mL
same,AUC(0-T),"[3]; 30 mg/m^2, oral solution, patients N=4, mean",708 H · ng/mL
same,Tmax,"[3]; 20 mg/m2, 20 mg/m^2, IV, patients N=3, median",15 min
same,Cmax,"[3]; 20 mg/m2, 20 mg/m^2, oral solution, patients N=3, mean",142 ng/mL
same,Tmax,"[3]; 20 mg/m2, 20 mg/m^2, oral solution, patients N=3, median",60 min
same,Tmax,"[3]; 25 mg/m2, 25 mg/m^2, IV, patients N=11, median",30 min
same,Cmax,"[3]; 25 mg/m2, 25 mg/m^2, oral solution, patients N=11, mean",180 ng/mL
same,Tmax,"[3]; 25 mg/m2, 25 mg/m^2, oral solution, patients N=11, median",30 min
same,Tmax,"[3]; 30 mg/m2, 30 mg/m^2, IV, patients N=4, median",30 min
same,Cmax,"[3]; 30 mg/m2, 30 mg/m^2, oral solution, patients N=4, mean",274 ng/mL
same,Tmax,"[3]; 30 mg/m2, 30 mg/m^2, oral solution, patients N=4, median",30 min
same,Cmax,"[3]; 20 mg/m^2, IV 30-minute infusion, patients N=3, mean",251 ng/mL
same,bioavailability,"[3]; 20 mg/m^2, oral solution vs IV, patients N=3, mean",43.5%
same,Cmax,"[3]; 25 mg/m^2, IV 30-minute infusion, patients N=11, mean",447 ng/mL
same,bioavailability,"[3]; 25 mg/m^2, oral solution vs IV, patients N=11, mean",55.6%
same,Cmax,"[3]; 30 mg/m^2, IV 30-minute infusion, patients N=4, mean",711 ng/mL
same,bioavailability,"[3]; 30 mg/m^2, oral solution vs IV, patients N=4, mean",62.2%
